Data on 13 compounds can be found in US20230233569A1 (Revolution Medicines, Inc., priority 2020, published 2023).

Holding throughout (assay): Ras-Raf disruption / FRET / MOA assay (BRAF RBD)
What all share (format): biochemical

Assay [1] has as its target KRAS G12D (Homo sapiens, UniProt P01116+P62937, G12D). The conditions noted are these: Ras-Raf disruption, with Cyclophilin A; read-out: KRAS G12D FRET data IC50. An excerpt: (§1) Disruption of […] Ras-binding Domain (BRAF^RBD) Interaction with K-Ras by Compounds of the Invention (also Called a FRET Assay or an MOA Assay)
(§2) Note—The following protocol describes a procedure for monitoring disruption of K-Ras G12C (GMP-PNP) binding to BRAF^RBD by a compound of the invention. This protocol may also be executed substituting other Ras proteins or nucleotides, such as K-Ras G12D and K-Ras G13D.
(§3) The purpose of this biochemical assay was to measure the ability of test compounds to facilitate ternary complex formation between a nucleotide-loaded K-Ras isoform and Cyclophilin A; the resulting ternary complex disrupts binding to a BRAF^RBD construct, inhibiting K-Ras signaling through a RAF effector. Data is reported as IC50 values.
(§4) In assay buffer containing 25 mM HEPES pH 7.3, 0.002% Tween20, 0.1% BSA, 100 mM NaCl and 5 mM MgCl2, tagless Cyclophilin A, His6-K-Ras-GMPPNP, and GST-BRAF^RBD were combined in a 384-well assay plate at final concentrations of 25 μM, 12.5 nM, and 50 nM, respectively. Compound was present in plate wells as a 10-point 3-fold dilution series starting at a final concentration of 30 μM. After incubation at 25° C. for 3 hours, a mixture of anti-His Eu-W1024 and anti-GST allophycocyanin was then added to assay sample wells at final concentrations of 10 nM and 50 nM, respectively, and the reaction incubated for an additional 1.5 hours. […] Compounds that facilitate disruption of a K-Ras:RAF complex were identified as those eliciting a decrease in the TR-FRET ratio relative to DMSO control wells.

For assay [2], the target named is KRAS G12S (Homo sapiens, UniProt P01116+P62937, G12S). The conditions noted are these: Ras-Raf disruption, with Cyclophilin A; read-out: KRAS G12S FRET data IC50.
KRAS G12S, sequence (P01116 1-169 isoform P01116-2 G12S limits assumed): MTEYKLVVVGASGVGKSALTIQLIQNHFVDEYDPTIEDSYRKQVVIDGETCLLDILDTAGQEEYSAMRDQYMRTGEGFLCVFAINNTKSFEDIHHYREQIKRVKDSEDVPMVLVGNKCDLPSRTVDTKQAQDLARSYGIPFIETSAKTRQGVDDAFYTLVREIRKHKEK
KRAS G12S, sequence (P62937 whole entry): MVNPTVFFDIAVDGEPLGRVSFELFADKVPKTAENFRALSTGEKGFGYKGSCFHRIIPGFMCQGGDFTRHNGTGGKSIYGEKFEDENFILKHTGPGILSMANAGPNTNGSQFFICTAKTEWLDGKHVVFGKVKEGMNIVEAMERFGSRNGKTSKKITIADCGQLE
From the text: as §1, §2, §3, §4

The target in assay [3] is KRAS G12V (Homo sapiens, UniProt P01116+P62937, G12V). The conditions noted are these: Ras-Raf disruption, with Cyclophilin A; read-out: KRAS G12V FRET data IC50.
KRAS G12V, sequence (P01116 1-169 isoform P01116-2 G12V limits assumed): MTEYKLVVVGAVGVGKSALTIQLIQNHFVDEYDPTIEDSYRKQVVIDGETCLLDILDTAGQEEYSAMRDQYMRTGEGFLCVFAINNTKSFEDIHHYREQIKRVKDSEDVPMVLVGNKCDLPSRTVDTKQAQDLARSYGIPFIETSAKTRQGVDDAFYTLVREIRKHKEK
KRAS G12V, sequence (P62937 whole entry): as the sequence (P62937 whole entry) above
From the text: as §1, §2, §3, §4

In assay [4] the target is KRAS G13C (Homo sapiens, UniProt P01116+P62937, G13C). The conditions noted are these: Ras-Raf disruption, with Cyclophilin A; read-out: KRAS G13C FRET data IC50.
KRAS G13C, sequence (P01116 1-169 isoform P01116-2 G13C limits assumed): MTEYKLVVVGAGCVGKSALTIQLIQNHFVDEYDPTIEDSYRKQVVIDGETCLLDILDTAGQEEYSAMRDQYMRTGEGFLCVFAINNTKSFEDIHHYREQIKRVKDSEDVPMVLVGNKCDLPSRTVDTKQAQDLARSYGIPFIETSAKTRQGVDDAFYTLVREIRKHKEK
KRAS G13C, sequence (P62937 whole entry): as the sequence (P62937 whole entry) above
From the text: as §1, §2, §3, §4

Assay [5] deals with KRAS G13D (Homo sapiens, UniProt P01116+P62937, G13D). The conditions noted are these: Ras-Raf disruption, with Cyclophilin A; read-out: KRAS G13D FRET data IC50.
KRAS G13D, sequence (P01116 1-169 isoform P01116-2 G13D limits assumed): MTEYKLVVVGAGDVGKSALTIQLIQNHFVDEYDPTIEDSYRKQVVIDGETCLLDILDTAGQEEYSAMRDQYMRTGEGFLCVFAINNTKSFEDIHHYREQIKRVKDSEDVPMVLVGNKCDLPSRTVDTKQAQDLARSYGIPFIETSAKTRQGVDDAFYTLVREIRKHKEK
KRAS G13D, sequence (P62937 whole entry): as the sequence (P62937 whole entry) above
From the text: as §1, §2, §3, §4

The target in assay [6] is KRAS WT (Homo sapiens, UniProt P01116+P62937). The conditions noted are these: Ras-Raf disruption, with Cyclophilin A; read-out: KRAS WT FRET data IC50.
KRAS WT, sequence (P01116 1-169 isoform P01116-2 limits assumed): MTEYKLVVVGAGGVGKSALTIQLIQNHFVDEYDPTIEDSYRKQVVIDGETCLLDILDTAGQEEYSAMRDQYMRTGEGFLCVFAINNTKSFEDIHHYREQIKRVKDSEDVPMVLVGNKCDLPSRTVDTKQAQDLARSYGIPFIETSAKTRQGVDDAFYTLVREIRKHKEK
KRAS WT, sequence (P62937 whole entry): as the sequence (P62937 whole entry) above
From the text: as §1, §2, §3, §4

Assay [7] addresses NRAS G12C (Homo sapiens, UniProt P01111+P62937, G12C). The conditions noted are these: NRAS G12C; read-out: NRAS G12C FRET data IC50.
From the text: as §1, §2, §3, §4

Assay [8] addresses KRAS G12C (Homo sapiens, UniProt P01116+P62937, G12C). The conditions noted are these: Ras-Raf disruption, with Cyclophilin A; read-out: KRAS G12C FRET data IC50. A digest of the protocol: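 His6-K-Ras G12C-GMPPNP (12.5 nM), GST-BRAF RBD (50 nM) and tagless Cyclophilin A (25 μM) incubated 3 h at 25 °C with compound (10-point 3-fold series from 30 μM), pH 7.3 HEPES buffer. Anti-His Eu/anti-GST APC added for 1.5 h; decreased TR-FRET ratio vs DMSO gives IC50.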

The structures appear in SMILES notation.

KRAS G12C, sequence (P01116 1-169 isoform P01116-2 G12C limits assumed): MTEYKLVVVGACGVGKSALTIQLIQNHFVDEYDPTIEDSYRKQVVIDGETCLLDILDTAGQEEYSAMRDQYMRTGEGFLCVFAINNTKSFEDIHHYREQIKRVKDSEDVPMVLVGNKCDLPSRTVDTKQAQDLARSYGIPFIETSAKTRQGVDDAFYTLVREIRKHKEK
KRAS G12C, sequence (P62937 whole entry): as the sequence (P62937 whole entry) above
KRAS G12D, sequence (P01116 1-169 isoform P01116-2 G12D limits assumed): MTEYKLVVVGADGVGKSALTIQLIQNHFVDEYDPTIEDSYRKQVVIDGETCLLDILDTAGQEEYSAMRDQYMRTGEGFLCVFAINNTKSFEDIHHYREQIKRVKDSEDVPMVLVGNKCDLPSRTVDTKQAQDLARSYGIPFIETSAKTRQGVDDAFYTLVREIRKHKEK
KRAS G12D, sequence (P62937 whole entry, the tested form may be a part): as the sequence (P62937 whole entry) above
NRAS G12C, sequence (P01111 whole entry G12C): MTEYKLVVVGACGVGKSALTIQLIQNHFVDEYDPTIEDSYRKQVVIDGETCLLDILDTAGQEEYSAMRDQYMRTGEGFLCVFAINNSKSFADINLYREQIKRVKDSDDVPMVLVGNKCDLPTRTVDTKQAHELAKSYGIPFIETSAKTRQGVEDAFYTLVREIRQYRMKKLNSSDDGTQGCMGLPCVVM
NRAS G12C, sequence (P62937 whole entry): as the sequence (P62937 whole entry) above

Consider `CCn1c(-c2cnccc2COC)c2c3cc(ccc31)-c1cccc(c1)C[C@H](NC(=O)[C@H](C(C)C)N(C)C(=O)CC(C)(C)N=C=Nc1ccc(OC)cc1)C(=O)N1CCC[C@H](N1)C(=O)OCC(C)(C)C2` [64 A and B], for which the IC50 in assay [1], in assay [2], in assay [3], in assay [4], in assay [5] and in assay [6] was more than 10000 nM in each case. The half-inhibitory concentration (IC50) in assay [7] and in assay [8] was more than 10000 nM throughout.
As to `CCn1c(-c2cnccc2COC)c2c3cc(ccc31)-c1cc(O)cc(c1)C[C@H](NC(=O)[C@H](C(C)C)N(C)C(=O)CN(C)C(=O)[C@H]1[C@@H](C(=O)OC)N1[S@+]([O-])C(C)(C)C)C(=O)N1CCC[C@H](N1)C(=O)OCC(C)(C)C2` (some centres unmarked) [Example 48], the IC50 in assay [1] was 100 to 1000 nM; in assay [2], 10 to 100 nM; in assay [3], 10 to 100 nM; in assay [4], 10 to 100 nM; in assay [5], 100 to 1000 nM; in assay [6], 100 to 1000 nM. Also, the IC50 in assay [7] and in assay [8] was 10 to 100 nM throughout.
`CCn1c(-c2cccnc2[C@H](C)OC)c2c3cc(ccc31)-c1cc(O)cc(c1)C[C@H](NC(=O)[C@H](C(C)C)N1CCC3(CCN(C(=O)[C@H]4CN4)C3)C1=O)C(=O)N1CCC[C@H](N1)C(=O)OCC(C)(C)C2` (some centres unmarked) [Example 59]: the IC50 in assay [1] was 10 to 100 nM; in assay [2], 10 to 100 nM; in assay [3], 10 to 100 nM; in assay [4], 10 to 100 nM; in assay [5], 100 to 1000 nM; in assay [6] it was 10 to 100 nM. Also, the IC50 in assay [7] is less than 10 nM; in assay [8], 10 to 100 nM.
`CCn1c(-c2cccnc2[C@H](C)OC)c2c3cc(ccc31)-c1cccc(c1)C[C@H](NC(=O)[C@H](C(C)C)N(C)C(=O)CCN=C=NCc1ccccc1OC)C(=O)N1CCC[C@H](N1)C(=O)OCC(C)(C)C2` [Example 73]: the IC50 in assay [1] was 100 to 1000 nM; in assay [2], 1000 to 10000 nM; in assay [3], more than 10000 nM; in assay [4], 1000 to 10000 nM; in assay [5], 1000 to 10000 nM; in assay [6], 1000 to 10000 nM. The IC50 in assay [7] and in assay [8] was 10 to 100 nM each time.
`CCn1c(-c2cccnc2[C@H](C)OC)c2c3cc(ccc31)-c1cccc(c1)C[C@H](NC(=O)[C@H](C(C)C)N(C)C(=O)CCN=C=NCCOC)C(=O)N1CCC[C@H](N1)C(=O)OCC(C)(C)C2` [Example 74]: the half-maximal inhibitory concentration (IC50) in assay [1] was in the range of 100 to 1000 nM; in assay [2], 1000 to 10000 nM; in assay [3], 1000 to 10000 nM; in assay [4], 100 to 1000 nM; in assay [5], 1000 to 10000 nM; in assay [6], 1000 to 10000 nM. For the same compound, the IC50 in assay [7] and in assay [8] was 10 to 100 nM in each case.
For `CCn1c(-c2cccnc2[C@H](C)OC)c2c3cc(ccc31)-c1cccc(c1)C[C@H](NC(=O)[C@H](C(C)C)N(C)C(=O)[C@H]1CC[C@H](N=C=NCc3ccccc3OC)C1)C(=O)N1CCC[C@H](N1)C(=O)OCC(C)(C)C2` [Example 76], the IC50 in assay [1] is 1000 to 10000 nM; in assay [2], more than 10000 nM; in assay [3], more than 10000 nM; in assay [4] it was 100 to 1000 nM; in assay [5] it was more than 10000 nM; in assay [6], 1000 to 10000 nM. For the same compound, the IC50 in assay [7] and in assay [8] was 100 to 1000 nM each time.
Turning to `CCn1c(-c2cccnc2[C@H](C)OC)c2c3cc(ccc31)-c1cccc(c1)C[C@H](NC(=O)[C@H](C(C)C)N(C)C(=O)[C@H]1C[C@H](N=C=NCc3ccccc3OC)C1)C(=O)N1CCC[C@H](N1)C(=O)OCC(C)(C)C2` [Example 77], the IC50 in assay [1] was 1000 to 10000 nM; in assay [2], 1000 to 10000 nM; in assay [3], 1000 to 10000 nM; in assay [4], 10 to 100 nM; in assay [5], more than 10000 nM; in assay [6] it was 1000 to 10000 nM. Also, the IC50 in assay [7] and in assay [8] was 10 to 100 nM each time.
`CCn1c(-c2cccnc2[C@H](C)OC)c2c3cc(ccc31)-c1cccc(c1)C[C@H](NC(=O)[C@H](C(C)C)N(C)C(=O)[C@H]1C[C@H](N=C=NCCOC)C1)C(=O)N1CCC[C@H](N1)C(=O)OCC(C)(C)C2` [Example 78]: the IC50 in assay [1] is 1000 to 10000 nM; in assay [2], 1000 to 10000 nM; in assay [3], 1000 to 10000 nM; in assay [4] it was 10 to 100 nM; in assay [5], more than 10000 nM; in assay [6] it was 1000 to 10000 nM. The IC50 in assay [7] and in assay [8] was 10 to 100 nM throughout.
On to `CCn1c(-c2cccnc2[C@H](C)OC)c2c3cc(ccc31)-c1cc(O)cc(c1)C[C@H](NC(=O)[C@H](C(C)C)N(C)C(=O)c1ncc(NC(=O)[C@@H]3CN3)n1C)C(=O)N1CCC[C@H](N1)C(=O)OCC(C)(C)C2` [Example 83], for which the IC50 in assay [1] lay in the range of 100 to 1000 nM; in assay [2], 10 to 100 nM; in assay [3] it was 10 to 100 nM; in assay [4], 10 to 100 nM; in assay [5] it was 10 to 100 nM; in assay [6] it was 10 to 100 nM. For the same compound, the IC50 in assay [7] and in assay [8] was 10 to 100 nM in each case.
Take `CCn1c(-c2cccnc2[C@H](C)OC)c2c3cc(ccc31)-c1cc(O)cc(c1)C[C@H](NC(=O)[C@H](C(C)C)N(C)C(=O)c1ncc(NC(=O)[C@H]3CN3)n1C)C(=O)N1CCC[C@H](N1)C(=O)OCC(C)(C)C2` [Example 84]: the IC50 is 1000 to 10000 nM in assay [1]; 100 to 1000 nM in assay [2]; 100 to 1000 nM in assay [3]; less than 10 nM in assay [4]; 100 to 1000 nM in assay [5]; 100 to 1000 nM in assay [6]. For the same compound, the IC50 in assay [7] and in assay [8] was 10 to 100 nM in each case.
As for `CCn1c(-c2cccnc2[C@H](C)OC)c2c3cc(ccc31)-c1cc(O)cc(c1)C[C@H](NC(=O)[C@H](C(C)C)N(C)C(=O)C1CCN(C(=O)[C@H]3CN3)CC1)C(=O)N1CCC[C@H](N1)C(=O)OCC(C)(C)C2` [Example 86], the IC50 in assay [1] is 100 to 1000 nM; in assay [2], 10 to 100 nM; in assay [3], 100 to 1000 nM; in assay [4], 10 to 100 nM; in assay [5], 10 to 100 nM; in assay [6], 10 to 100 nM. The IC50 in assay [7] was less than 10 nM; in assay [8] it was 10 to 100 nM.
Regarding `CCn1c(-c2cccnc2[C@H](C)OC)c2c3cc(ccc31)-c1cc(O)cc(c1)C[C@H](NC(=O)[C@H](C(C)C)N(C)C(=O)c1ccc([C@@H]3CN3)nc1)C(=O)N1CCC[C@H](N1)C(=O)OCC(C)(C)C2` [Example 87], the IC50 fell in the range of 1000 to 10000 nM in assay [1]; 100 to 1000 nM in assay [2]; 100 to 1000 nM in assay [3]; 10 to 100 nM in assay [4]; 100 to 1000 nM in assay [5]; 100 to 1000 nM in assay [6]. For the same compound, the IC50 in assay [7] and in assay [8] was 10 to 100 nM in each case.
Regarding `CCn1c(-c2cccnc2[C@H](C)OC)c2c3cc(ccc31)-c1cc(O)cc(c1)C[C@H](NC(=O)[C@H](C(C)C)N(C)C(=O)C1CCN(C(=O)[C@@H]3CN3)CC1)C(=O)N1CCC[C@H](N1)C(=O)OCC(C)(C)C2` [Example 89], the IC50 in assay [1] is 100 to 1000 nM; in assay [2], 10 to 100 nM; in assay [3], 100 to 1000 nM; in assay [4], less than 10 nM; in assay [5], 10 to 100 nM; in assay [6] it was 10 to 100 nM. The IC50 in assay [7] and in assay [8] was 10 to 100 nM throughout.

As usually defined, the IC50 is the concentration at which inhibition is half-maximal.
